The conditions of data set [1]: human full blood at 37 degrees C.; cited from earlier work.
For data set [2], the system named is brown adipose tissue (BAT-associated dorsal interscapular region). The data set can be described thus: Hyperpolarized 13C MR imaging of brown adipose tissue activation after norepinephrine stimulation. It counts as in vivo, male Sprague-Dawley rats. On the procedure: (§1) The following experimental results are from studies using male Sprague-Dawley rats (n=5, weight=336 g, SD=66 g) that were assessed for brown adipose tissue activation and assessment according to certain embodiments of the disclosure. The animals were kept at an ambient room temperature of 22° C. Ketamine/xylazine was used for anesthesia, with periodic intramuscular re-administration to maintain anesthesia (80-100 mg/kg ketamine, 8-10 mg/kg xylazine). Blood oxygen saturation and heart rate were monitored using a peripheral pulse oximeter placed on the tail. The body temperature of the animal was maintained throughout the imaging procedures using a heated water pad.
(§2) The animals were scanned in the supine position using a 3T GE MR750 scanner (GE Healthcare, Waukesha, Wis.). A micro-strip dual-tuned ^1H/^13C rat coil (Magvale, San Francisco, Calif.) was used. The rat was positioned so that the heart was in the centre of the coil, taking care to position the dorsal interscapular fat pad to remain within the sensitive region of the coil. A T2-weighted fast spin echo (FSE) (TE, 87 ms; TR, 5 s; matrix size, 192×160; FOV, 12×12 cm^2; slice thickness, 3 mm) sequence was used to obtain an anatomical reference for co-registration. A 2D FSE IDEAL sequence (TR, 5 s; matrix size, 192×160; FOV, 12×12 cm^2, slice thickness, 3 mm) was used to obtain water and fat images.
(§3) Hyperpolarized ^13C MR imaging scans were performed following intravenous tail vein infusions of 2.0 mL/80 mM pre-polarized [1-^13C] pyruvate. Pyruvate was injected over 10 seconds, with the MR imaging acquisition started simultaneously with the start of injection. Hyperpolarized scans were performed during baseline (n=5) and stimulated (n=3) conditions, 15 minutes after 2.5 mg/kg intraperitoneal norepinephrine (NE) injection, separated by approximately 1 hour to prepare the hyperpolarized sample. Pyruvate, bicarbonate, and lactate were imaged in an axial orientation using a multi-slice, single-shot, time-resolved 13C spiral imaging pulse sequence previously developed for large animal cardiac imaging (TR, 5 s; FOV, 48×48 cm^2; in-plane resolution, 6.8×6 8 mm^2; 6 slices, slice thickness/spacing, 10 mm/1 mm; pyruvate FA 10°, bicarbonate and lactate FA 60°; scan time, 1 min) (18, 24, 25). Each metabolic volume was acquired once during each TR, giving a total of 12 frames.
(§4) ROIs were drawn using the T2-weighted anatomical images, over the heart, kidneys, and in the dorsal interscapular region, a known depot of BAT in rodents. The ^13C image intensity in these ROIs were normalized to the temporal maximum pyruvate signal in the heart, and corrected for nominal FA by dividing by sin(FA). Statistical significance between baseline and norepinephrine stimulated conditions were assessed using a two-tailed, unpaired Student's t-test. Statistical significance was considered at the P<0.05 level.
To separate the effect from the effect of a change in perfusion, the dynamic data was fit on a voxel-by-voxel basis to obtain the apparent rate constants for pyruvate-to-bicarbonate conversion (kpyr,bic, s^−1) and pyruvate-to-lactate exchange (kpyr,lac, s^−1).

The test system of another data set is heart. The experiment in a line: Hyperpolarized 13C MR imaging after norepinephrine stimulation, heart ROI. It counts as in vivo, male Sprague-Dawley rats. On the procedure: as §1, §2, §3, §4
A further data set concerns kidneys. The experiment in a line: Hyperpolarized 13C MR imaging after norepinephrine stimulation, kidney ROI. Format: in vivo, male Sprague-Dawley rats. On the procedure:
as §1, §2, §3, §4

[3] abbreviates: BAT-associated dorsal interscapular region, voxel-by-voxel fit of dynamic data.

“Also recorded” adds a separate entry of the source. Marks after values point to notes of the source that are not given here.

As to `CC(=O)[13C](=O)O` [^13C1-pyruvate, [1-^13C] pyruvate], the T1 relaxation entry in data set [1] is reported as “about 42 s”.
Regarding `NC[C@H](O)c1ccc(O)c(O)c1` [Norepinephrine, norepinephrine], the “13C bicarbonate signal change following norepinephrine stimulation, relative to substrate signal in the heart” value is recorded as “increased” in data set [2] (BAT-associated dorsal interscapular region, in words); “remained constant” in the data set on heart (in words, listed as NE); “remained constant; also recorded: not statistically significant” with heart (in words, listed as norepinephrine); “decreased” in the data set on kidneys (kidney, in words). The “Difference in apparent pyruvate-to-bicarbonate conversion rate (kpyr,bic) versus baseline” value in data set [2] (setting [3]) stood at 3.4 fold. For the same molecule, the “Difference in apparent pyruvate-to-lactate conversion rate (kpyr,lac) versus baseline” value in data set [2] (setting [3]) turned out to be 4.0 fold. Also, the “Increase in hyperpolarized [1-13C] lactate (lactate-to-pyruvate ratio) versus baseline” value in data set [2] (BAT-associated interscapular region, P<0.001) came out at 4.0 fold. Besides, in data set [2] (BAT-associated interscapular region, P<0.01), the “Increase in hyperpolarized 13C bicarbonate (bicarbonate-to-pyruvate ratio) versus baseline” value worked out at 4.3 fold. The “Hyperpolarized [1-13C] lactate signal change following norepinephrine infusion” value is reported as “Increases” in data set [2] (dorsal interscapular region, in words); “Increases” in the data set on heart (in words); “Increases” with kidneys (kidneys, in words). Further, the “Maximum bicarbonate to maximum cardiac pyruvate signal ratio” value in data set [2] (interscapular region, 15 minutes after 2.5 mg/kg intraperitoneal norepinephrine, n = 2, mean±SD) is 0.0047 ± 0.0010*^; with heart (15 minutes after 2.5 mg/kg intraperitoneal norepinephrine, n = 2, mean±SD), 0.0099 ± 0.0032^ns; with kidneys (kidney, 15 minutes after 2.5 mg/kg intraperitoneal norepinephrine, n = 2, mean±SD), 0.0036 ± 0.0028^ns. Besides, the “Maximum lactate to maximum cardiac pyruvate signal ratio” value stood at 0.0543 ± 0.0051 in data set [2] (interscapular region, 15 minutes after 2.5 mg/kg intraperitoneal norepinephrine, n = 3, mean±SD); 0.0816 ± 0.0191 in the data set on heart (15 minutes after 2.5 mg/kg intraperitoneal norepinephrine, n = 3, mean±SD); 0.0625 ± 0.0130 in the data set on kidneys (kidney, 15 minutes after 2.5 mg/kg intraperitoneal norepinephrine, n = 3, mean±SD). The “Increase in hyperpolarized lactate signal versus baseline” value in the data set with heart (P<0.001) was found to be 4.0 fold; with kidneys (kidneys, P<0.05), 1.9 fold.

The values are drawn from patent publication US20140275969A1, “FUNCTIONAL BROWN ADIPOSE TISSUE IMAGING TECHNIQUE” (GENERAL ELECTRIC COMPANY, priority 2013, published 2014).
